The values below come from paper PMC11820866, “Angiotensin-Converting Enzyme (ACE)-Inhibitor Activity of Novel Peptides Derived from Porcine Liver and Placenta” (Molecules, 2025).

Series [1] concerns ACE. On the set-up: method as in 14 sources, ref [13, 14] = [13]; PMID 16218651; doi:10.1021/jf0508908; 13. Vercruysse L. Van Camp J. Smagghe G. ACE inhibitory peptides derived from enzymatic hydrolysates of animal muscle protein: A review J. Agric. Food Chem. 2005 53 8106 8115 10.1021/jf0508908 1621865 || [14]; PMID 22061507; doi:10.1016/S0309-1740(00)00108-X; 14. Arihara K. Nakashima Y. Mukai T. Ishikawa S. Itoh M. Peptide inhibitors for angiotensin I-converting enzyme from enzymatic hydrolysates of porcine skeletal muscle proteins Meat Sci. 2001 57 319 32 ||| ref [13, 15] = [13]; PMID 16218651; doi:10.1021/jf0508908; 13. Vercruysse L. Van Camp J. Smagghe G. ACE inhibitory peptides derived from enzymatic hydrolysates of animal muscle protein: A review J. Agric. Food Chem. 2005 53 8106 8115 10.1021/jf0508908 1621865 || [15]; doi:10.1046/j.1344-3941.2003.00086.x; 15. Katayama K. Tomatsu M. Fuchu H. Sugiyama M. Kawahara S. Yamauchi K. Kawamura Y. Muguruma M. Purification and characterization of an angiotensin I-converting enzyme inhibitory peptide derived from ||| ref [16] = [16]; doi:10.1016/j.foodchem.2008.09.081; 16. Muguruma M. Ahhmed A.M. Katayama K. Kawahara S. Maruyama M. Nakamura T. Identification of pro-drug type ACE inhibitory peptide sourced from porcine myosin B: Evaluation of its antihypertensive eff ||| ref [17] = [17]; PMID 1368684; 17. Miyoshi S. Ishikawa H. Kaneko T. Fukui F. Tanaka H. Maruyama S. Structures and activity of angiotensin-converting enzyme inhibitors in an α-zein hydrolysate Agric. Biol. Chem. 1991 55 1313 1318 13 ||| ref [17, 18] = [17]; PMID 1368684; 17. Miyoshi S. Ishikawa H. Kaneko T. Fukui F. Tanaka H. Maruyama S. Structures and activity of angiotensin-converting enzyme inhibitors in an α-zein hydrolysate Agric. Biol. Chem. 1991 55 1313 1318 13 || [18]; PMID 16448176; doi:10.1021/jf051263l; 18. Wu J. Aluko R.E. Nakai S. Structural requirements of angiotensin i-converting enzyme inhibitory peptides: Quantitative structure−activity relationship study of di- and tripeptides J. Agric. Food C ||| ... To be noted: cited from earlier work; for pIC50: porcine-derived peptides, literature, read-out: ACE Inhibition IC50; for ACE inhibition (in words): fish skin gelatine hydrolysate peptides, ref [26].

In series [2] the target is T1, ACE from rabbit lung (Oryctolagus cuniculus, UniProt P12822).
T1 construct: ACE from rabbit lung (purchased from Sigma Aldrich 2U equal to 1 mg of protein); purchased Sigma Aldrich; host or cells: rabbit lung
T1 sequence (P12822 34-1310): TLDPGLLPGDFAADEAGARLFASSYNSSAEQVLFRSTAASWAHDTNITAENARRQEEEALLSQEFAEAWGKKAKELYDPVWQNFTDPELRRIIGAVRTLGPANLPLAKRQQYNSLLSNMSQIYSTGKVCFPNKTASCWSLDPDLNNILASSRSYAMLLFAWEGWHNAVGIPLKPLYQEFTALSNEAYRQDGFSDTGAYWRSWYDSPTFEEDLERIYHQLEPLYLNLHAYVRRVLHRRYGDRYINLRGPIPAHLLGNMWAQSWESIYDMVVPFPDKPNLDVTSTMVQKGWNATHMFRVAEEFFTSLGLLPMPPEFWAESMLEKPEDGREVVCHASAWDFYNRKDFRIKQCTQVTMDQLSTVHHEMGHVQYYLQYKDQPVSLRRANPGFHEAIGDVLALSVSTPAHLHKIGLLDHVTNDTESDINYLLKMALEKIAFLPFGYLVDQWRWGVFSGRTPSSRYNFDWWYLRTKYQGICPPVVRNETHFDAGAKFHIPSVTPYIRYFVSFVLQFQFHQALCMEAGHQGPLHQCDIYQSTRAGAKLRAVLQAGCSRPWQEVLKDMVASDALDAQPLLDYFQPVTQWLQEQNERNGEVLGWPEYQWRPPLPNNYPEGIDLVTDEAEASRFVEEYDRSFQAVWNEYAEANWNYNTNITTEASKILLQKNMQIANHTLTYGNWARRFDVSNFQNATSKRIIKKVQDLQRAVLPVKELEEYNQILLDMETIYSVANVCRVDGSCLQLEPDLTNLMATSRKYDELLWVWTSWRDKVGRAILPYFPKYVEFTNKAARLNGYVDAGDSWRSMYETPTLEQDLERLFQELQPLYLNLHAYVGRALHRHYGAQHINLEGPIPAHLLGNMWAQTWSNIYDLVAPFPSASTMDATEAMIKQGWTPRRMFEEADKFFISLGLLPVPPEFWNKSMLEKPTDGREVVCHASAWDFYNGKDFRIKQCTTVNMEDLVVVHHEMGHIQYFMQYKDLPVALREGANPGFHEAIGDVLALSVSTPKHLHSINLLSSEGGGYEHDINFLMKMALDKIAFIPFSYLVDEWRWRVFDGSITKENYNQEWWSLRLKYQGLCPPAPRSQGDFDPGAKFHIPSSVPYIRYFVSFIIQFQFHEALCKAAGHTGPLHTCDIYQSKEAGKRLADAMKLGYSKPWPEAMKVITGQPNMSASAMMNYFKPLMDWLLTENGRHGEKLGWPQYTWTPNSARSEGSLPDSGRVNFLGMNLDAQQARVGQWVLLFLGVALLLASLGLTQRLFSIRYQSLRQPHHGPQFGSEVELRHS
The series can be described thus: ACE-inhibition assay (modified Cushman and Cheung, HHL substrate, HPLC). It counts as biochemical. To be noted: 0.5 mM HHL, TRIS pH 8.3, 37 °C 30 min, HPLC-UV 228 nm, calculated from % inhibition at 0.1, 1 (2) mM, this study.
Procedure: ACE from rabbit lung (purchased from Sigma Aldrich 2U equal to 1 mg of protein) was reconstituted in milli-q water (1 mL) to produce the ACE stock solution (1 U/mL, 500 μg/mL of protein). ACE working solution (200 mU/mL, 100 μg/mL of protein) was prepared by diluting the stock solution 1:5. ACE stock solution was stored at −20 °C, and the ACE working solution was prepared when required. […] Milli-q water or experimental sample (40 μL) and 0.5 mM HHL (145 μL) were added to 1.5 mL micro-centrifuge tubes and incubated in a water bath at 37 °C for 3 min; then, 200 mU/mL ACE (15 μL) was added to each tube and the tubes were then incubated in a water bath at 37 °C for 30 min. After 30 min, 1 M HCl (200 μL) was added to the tubes to stop the reaction.
To determine the anti-ACE activity of the analytes, the samples were analysed using HPLC (Beckman Coulter) fitted with an Ascentis® Express Peptide ES-C18, 2.7 μm column. The samples were eluted with an isocratic mobile phase consisting of 50% methanol and 50% water containing trifluoroacetic acid (TFA) (0.2%) at a flow rate of 0.4 mL/min. The substrate and the product were detected using UV at 228 nm. The ability of each peptide to inhibit ACE was measured by comparing the reduction of HA (the product of ACE digested HHL) in relation to the positive control (no inhibitor or peptide present). Inhibition was calculated using Equation (1), as follows:ACE inhibition (%) = (1 − (B ÷ A)) × 100(1) where A is the area of the HA peak in control 1 and B is the area of the HA peak in experimental sample. To assess the anti-ACE activity of the synthetic peptides, samples were prepared by diluting the 10 mM stock synthetic peptide solutions using milli-q water to produce samples at 2 mM, 1 mM, and 0.1 mM.

Series [3] can be described thus: Solubility of synthetic peptides in aqueous solution. It counts as physicochemical. As to conditions: in words; stocks 10 mM in deionised water. On the procedure:
Based on the in silico activity prediction, four synthetic peptides were ordered from Peptide Synthetics (Protein Peptide Research Ltd., Fareham, UK). They were supplied as 10 mg aliquots of lyophilised powders. The synthetic peptides were dissolved in deionised water to produce 10 mM stock solutions: • FWG: 10 mg/mL = 24.48 mM therefore 10 mM = 4.085 mg/mL • MFLG: 10 mg/mL = 21.43 mM therefore10 mM = 4.666 mg/mL • […]: 10 mg/mL = 10.75 mM therefore 10 mM = 9.302 mg/mL • FFNDA: 10 mg/mL = 16.32 mM or10 mM = 6.127 mg/mL

pIC50: −log10 of the molar value. Read-outs that look alike come from different tables or passages of the source. Residues, ends and D or L forms follow the SMILES beside them. No end group written: not given here.

Turning to “MNPPK [literature porcine peptide, myosin]”, the pIC50 in series [1] (ref [13],[14]) was 3.02. With “KRQKYDI [literature porcine peptide, troponin]”, the negative logarithm of the IC50 (pIC50) in series [1] (ref [17],[20]) was 4.57. On to `CSCC[C@H](N)C(=O)N[C@@H](Cc1ccccc1)C(=O)N[C@@H](CC(C)C)C(=O)NCC(=O)O` [MFLG] (H-MFLG-OH), for which the half-inhibitory concentration (IC50) in series [2] is 0.07 mM. For the same compound, the “Solubility in aqueous solution” value in series [3] is “readily soluble in aqueous solution”. “VKKVLGNP [literature porcine peptide, myosin (light chain)]”: the pIC50 in series [1] (ref [20],[21]) was 4.54. On to FFNDA [FFNDA], for which the IC50 in series [2] was 0.83 mM. In series [3], the “Solubility in aqueous solution” value is reported as “perhaps less soluble”. As to “KRVITY [literature porcine peptide, myosin]”, the pIC50 in series [1] (ref [16]) is 5.22. “RMLGQTPTK [literature porcine peptide, troponin C]”: the negative-log IC50 (pIC50) in series [1] (ref [13],[15]) was 4.47.

Turning to “VLAQYK [peptide derived from meat waste]”, in series [1] (peptide derived from meat waste, ref [7]), the “ACE-inhibitory activity (in words)” value is recorded as “greatest ACE-inhibitory activity”.

With “KAPVA [literature porcine peptide, titin]”, the pIC50 in series [1] (ref [20],[24]) is 4.33. For the compound “RMLGQTP [literature porcine peptide, troponin C]”, in series [1] (ref [13],[15]), the negative logarithm of the IC50 (pIC50) was 3.30.

As to LLMLDNDLPP, in series [1], the “ACE inhibition (in words)” value was “potent non-competitive ACE inhibition”. In the case of SDPPLVFVG, the IC50 in series [2] was 1.16 mM. For the same compound, the “Solubility in aqueous solution” value in series [3] was “perhaps less soluble”. Consider “ITTNP [literature porcine peptide, myosin]”, for which, in series [1] (ref [13],[14]), the pIC50 was 3.26.

Consider “PTPVP [literature porcine peptide, titin]”, for which the pIC50 in series [1] (ref [20],[24]) was 3.59. Turning to “GIPGAP [peptide from hydrolysates of thornback ray skin]”, the “ACE inhibition (in words)” value in series [1] was “most active ACE inhibitor”. Regarding “VKAGF [literature porcine peptide, actin]”, the negative-log IC50 (pIC50) in series [1] (ref [16]) is 4.70.

Broadly, the pIC50 is the IC50 on a negative log10 scale, so that one unit is a factor of ten. As a reminder, the IC50 is the concentration that inhibits the measured activity by half.
